Like-named read-outs stand apart in the source and are kept apart here.
Assays:
[1] = in ethanol, known value; cited from earlier work
[2] = Fluorescence quantum yield determination; assay type: physicochemical; settings: in buffer
Protocol: There is a shift of 6 nm in the absorbance maxima of the fluorophore between IDCC-NDPK and IDCC-NDPK˜P, but only 2 nm in the emission maxima. The fluorescence quantum yields for the two forms of the labelled enzyme were determined using as reference the known value of 0.83 for Coumarin 314 in ethanol.

human rho protein = assay: Nucleotide exchange and GTP hydrolysis of rho measured with IDCC-NDPK˜P fluorescence; assay type: biochemical; settings: 2 μM Rho.GDP, 10 μM GTP, 30° C., pH 7.6
Protocol: The rate of nucleotide exchange from a small G protein, rho (which also has GTPase activity), was determined in solution. The rate of hydrolysis was also obtained indirectly.
Human rho protein was prepared in a form containing tightly-bound GDP. In the presence of excess added GTP, nucleotide exchange occurs such that GDP is released into free solution where it can be measured according to the invention. Once GTP is bound to rho, its hydrolysis is slowly catalysed by the protein at a steady-state rate. This creates more GDP, which is measured once it is released.
Fluorescence emission was recorded for a 200 μl solution containing 20 mM Tris/HCl, pH 7.6, 1 mM MgCl2, 100 mM (NH4)2SO4, 10 μM GTP, and 2 μM IDCC-NDPK˜P. The reaction was started at t=0 by adding 2 μM Rho.GDP. Excitation was at 440 nm with the emission monochromator set to 475 nm. The temperature was 30° C. The data were normalised using the fluorescence change for 1 μM GDP obtained from a titration of IDCC-NDPK˜P with different GTP/GDP ratios. […] The exponential “burst” represents the exchange of GDP bound to rho for GTP. The linear phase represents steady state: exchange of further GTP onto rho is limited by hydrolysis to GDP.

| Compound | fluorescence quantum yield [1] | fluorescence quantum yield [2] | rate constant of exponential phase (exchange of bound GDP for GTP) (human rho protein) | slope of linear phase (steady state GTP hydrolysis) (human rho protein) |
| --- | --- | --- | --- | --- |
| CCOC(=O)c1cc2cc3c4c(c2oc1=O)CCCN4CCC3 [Coumarin 314] | 0.83 | 0.52 | – | – |
| Rho.GDP: human rho protein, a small G protein with GTPase activity, prepared with tightly-bound GDP | – | – | 0.196 min⁻¹ | 41.2 nM GDP min^−1 |
